According to PMC8151276, “An Integrated Approach toward NanoBRET Tracers for Analysis of GPCR Ligand Engagement” (Molecules, 2021):

Target: T1, CHRM4 (Homo sapiens, UniProt P08173)
T1 construct: purchased Promega (in-house HiBiT-GPCR construct library, NanoBRET)
T1 sequence (P08173 1-479): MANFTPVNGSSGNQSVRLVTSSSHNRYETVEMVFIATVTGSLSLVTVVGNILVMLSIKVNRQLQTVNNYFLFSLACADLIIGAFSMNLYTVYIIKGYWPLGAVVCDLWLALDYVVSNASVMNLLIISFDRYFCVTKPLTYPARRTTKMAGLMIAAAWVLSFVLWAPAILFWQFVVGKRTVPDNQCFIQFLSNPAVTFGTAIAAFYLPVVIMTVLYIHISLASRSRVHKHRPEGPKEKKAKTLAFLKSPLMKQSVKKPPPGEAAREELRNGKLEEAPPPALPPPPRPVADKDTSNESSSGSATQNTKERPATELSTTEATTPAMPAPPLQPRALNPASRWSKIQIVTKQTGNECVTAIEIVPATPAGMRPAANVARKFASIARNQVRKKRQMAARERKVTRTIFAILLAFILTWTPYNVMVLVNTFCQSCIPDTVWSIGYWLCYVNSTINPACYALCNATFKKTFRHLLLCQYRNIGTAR
Experiment: NanoBRET screen HiBiT-CHRM4 in HEK293
Type: binding
Protocol: Each tracer candidate was screened across the entire library of HiBiT-GPCR constructs using NanoBRET as the detection modality. As depicted in Figure 4A, the specificity of interactions was evaluated through decrease in BRET due to competitive displacement of a bound tracer by excess parental compound. Each tracer was analyzed for binding to each HiBiT-GPCR fusion in the absence and in the presence of competing parental compound. Briefly, HEK293 cells were transfected with HiBiT-GPCR constructs diluted into promoterless DNA to reduce expression and maximize translocation to the cell surface. Each tracer candidate was then screened at concentrations of 1 μM and 0.1 μM across cells expressing these fusions. Cells were treated for 1.5 h with tracer either alone or in the presence of 20 μM competing parental compound (i.e., control). BRET was measured upon addition of purified LgBiT and subsequent complementation with HiBiT genetically fused to a GPCR. The specificity of interactions was assessed through a decrease in BRET signal due to competitive displacement of the bound tracer. To further gauge the robustness of these interactions, the fold response over the control (i.e., BRETtracer/BRETcontrol) was calculated. We chose a 1.5-fold response, which translates to ≥7-fold signal over noise as the minimal threshold required to score an interaction as positive.
HiBiT-GPCR DNA constructs were diluted in 10 mM Tris pH 8 to a final concentration of 0.01 μg/μL, arrayed in 96-well plates and stored at −20 °C. For transfection, HEK293 cells were suspended in Opti-MEM (without phenol red) supplemented with 2% fetal bovine serum (Seradigm) and 100 units/mL penicillin–streptomycin (Gibco) at a final concentration of 220,000 cells/mL and dispensed into white 96-well plates at 90 μL/well. Subsequent transfections and screens were carried using an Agilent Bravo Automated Liquid Handling Platform. First, the 96-well HiBiT DNA arrays were diluted 25-fold in Opti-MEM (without serum or phenol red) to a final concentration of 0.0004 μg/μL and 20 μL of the diluted DNAs were transferred into new 96-well plates. Next, promoterless carrier DNA (1 μg/μL) was diluted 25-fold (0.04 μg/μL) and then dispensed into the diluted arrays at 20 μL/well. Following brief mixing, Viafect transfection reagent (Promega) diluted 16-fold into Opti-MEM was dispensed into the plates at 40 μL/well. After mixing by pipetting, plates were incubated for 10 min on the pipetting station deck. The DNA-transfection reagent complexes were then added to plates containing cells. To facilitate the screen, 10 μL of DNA-transfection reagent complexes were added in duplicates to the top 4 and bottom 4 rows, resulting in two identical 48-well arrays per plate. Plates with transfected cells were incubated for 18–20 h at 37 °C/5% CO2. A screen of each tracer across the entire library using two different concentrations requires duplicate plates of transfected cells. Depending on the number of tracers being screened, transfections can be scaled up using the same ratios. The next day, for each tracer, four 20× screening solutions in tracer dilution buffer (Promega) were prepared: two duplicates at final concentration of 20 μM and two duplicates at a final concentration of 2 μM. […] The four resulting solutions were diluted 4-fold in Opti-MEM without serum or phenol red to generate 5× solutions (5 µM and 0.5 µM tracer +/− 100 μM competing compound). To screen the library, a BioTek MultiFlo FX liquid dispenser was used to dispense 22.5 µL of tracer solution to the top 4 rows and 22.5 µL tracer + competing compound solution to the 4 bottom rows. Plates were briefly mixed on an orbital shaker and incubated for 1.5 h at room temperature. […] Plates were briefly mixed on an orbital shaker and incubated for 15 min to allow complementation.

Structure (SMILES)	NanoBRET Fold Response (CHRM4, tracer 0.1μM)	NanoBRET Fold Response (CHRM4, tracer 1μM)	also measured
COc1ccc2c(n1)c(CCNC(C)=O)cn2CCNC(=O)CCc1ccc2n1[B-](F)(F)[N+]1=C(c3ccc[nH]3)C=CC1=C2 [Azamelatonin-1-NB590]	–	–	NanoBRET Fold Response (0.1μM tracer): 0.74; NanoBRET Fold Response (1μM tracer): 0.98
CC(C)N(CC[C@H](c1ccccc1)c1cc(CCNC(=O)c2ccc(CNC(=O)CCc3ccc4n3[B-](F)(F)[N+]3=C(c5ccc[nH]5)C=CC3=C4)cc2)ccc1O)C(C)C [Tolterodine-BZ-NB590]	3.69	2.39	–
O=C(CCc1ccc2n1[B-](F)(F)[N+]1=C(c3ccc[nH]3)C=CC1=C2)NCCOCCOCCNC(=O)OCCOCCN1CCN(C2=Nc3ccccc3Sc3ccccc32)CC1 [Quetiapine-a-2-NB590]	1.65	2.06	–
Cc1cc2c(s1)Nc1ccccc1N=C2N1CCN(CCCNC(=O)CCOCCOCCOCCOCCNC(=O)CCc2ccc3n2[B-](F)(F)[N+]2=C(c4ccc[nH]4)C=CC2=C3)CC1 [Olanzapine-a-2-NB590]	1.07	1.23	–
O=C(CCc1ccc2n1[B-](F)(F)[N+]1=C(c3ccc[nH]3)C=CC1=C2)NCc1ccc(C(=O)NCCOCCOCCNCC(O)COc2cccc3ccccc23)cc1 (stereo not shown) [Propranolol-3-NB590]	–	–	NanoBRET Fold Response (CHRM4, 0.1μM): 0.96; NanoBRET Fold Response (CHRM4, 1μM): 1.05
CN1CCN(C2=Nc3cc(Cl)ccc3N(CC(=O)NCCOCCOCCOCCOCCNC(=O)CCc3ccc4n3[B-](F)(F)[N+]3=C(c5ccc[nH]5)C=CC3=C4)c3ccccc32)CC1 [Clozapine-c-2-NB590]	–	–	NanoBRET Fold Response (CHRM4, 0.1μM tracer): 0.97; NanoBRET Fold Response (CHRM4, 1μM tracer): 0.98
O=C(CCc1ccc2n1[B-](F)(F)[N+]1=C(c3ccc[nH]3)C=CC1=C2)NCc1ccc(C(=O)NCCOCCC(=O)N[C@@H]2CC[C@@]3(O)[C@H]4Cc5ccc(O)c6c5[C@@]3(CCN4CC3CC3)[C@H]2O6)cc1 [Naltrexone-3-NB590]	0.66	0.79	–
CC(C)N(CC[C@H](c1ccccc1)c1cc(CCNC(=O)CCOCCOCCOCCOCCNC(=O)CCc2ccc3n2[B-](F)(F)[N+]2=C(c4ccc[nH]4)C=CC2=C3)ccc1O)C(C)C [Tolterodine-2-NB590]	2.75	1.53	–
Cc1nc2n(c(=O)c1CCN1CCC(c3noc4cc(F)ccc34)CC1)CCCC2OC(=O)NCCOCCOCCOCCOCCNC(=O)CCc1ccc2n1[B-](F)(F)[N+]1=C(c3ccc[nH]3)C=CC1=C2 (stereo not shown) [Risperidone-2-NB590]	1.10	1.67	–
O=C(CCOCCOCCOCCOCCNC(=O)CCc1ccc2n1[B-](F)(F)[N+]1=C(c3ccc[nH]3)C=CC1=C2)NCCCN1CCN(C2=Nc3cc(Cl)ccc3Nc3ccccc32)CC1 [Clozapine-a-2-NB590]	–	–	NanoBRET Fold Response (CHRM4, 0.1μM tracer): 1.55; NanoBRET Fold Response (CHRM4, 1μM tracer): 1.90
COc1ccc2[nH]c(-c3ccc(CNC(=O)CCOCCOCCOCCOCCNC(=O)CCc4ccc5n4[B-](F)(F)[N+]4=C(c6ccc[nH]6)C=CC4=C5)cc3)c(CCNC(C)=O)c2n1 [AzomelatoninICO9-2-NB590]	–	–	NanoBRET Fold Response (0.1μM tracer): 0.77; NanoBRET Fold Response (1μM tracer): 0.98
CN1CCN(C2=Nc3cc(Cl)ccc3Nc3ccc(CNC(=O)CCOCCOCCOCCOCCNC(=O)CCc4ccc5n4[B-](F)(F)[N+]4=C(c6ccc[nH]6)C=CC4=C5)cc32)CC1 [Clozapine-b-2-NB590]	–	–	NanoBRET Fold Response (CHRM4, 0.1μM tracer): 1.48; NanoBRET Fold Response (CHRM4, 1μM tracer): 2.78
COc1ccccc1N1CCN(CCCCN2C(=O)c3ccc(CNC(=O)CCOCCNC(=O)c4ccc(CNC(=O)CCc5ccc6n5[B-](F)(F)[N+]5=C(c7ccc[nH]7)C=CC5=C6)cc4)cc3C2=O)CC1 [NAN-190-3-NB590]	1.30	0.66	–
N#CN=C(NCCCOc1cccc(CN2CCCCC2)c1)NCCNC(=O)CCOCCOCCOCCOCCNC(=O)CCc1ccc2n1[B-](F)(F)[N+]1=C(c3ccc[nH]3)C=CC1=C2 [Aminopotentidine-2-NB590]	1.17	1.39	–
CN(C)CCC=C1c2ccccc2CCc2ccc(C(=O)NCCNC(=O)CCOCCOCCOCCOCCNC(=O)CCc3ccc4n3[B-](F)(F)[N+]3=C(c5ccc[nH]5)C=CC3=C4)cc21 [Amitriptyline-b-2-NB590]	–	–	NanoBRET Fold Response (tracer at 0.1μM, listed as amitriptyline-b-2-NB590): 3.79; NanoBRET Fold Response (tracer at 1μM, listed as amitriptyline-b-2-NB590): 1.75
COc1ccccc1N1CCN(CCCCN2C(=O)c3ccc(CNC(=O)CCOCCOCCOCCOCCNC(=O)CCc4ccc5n4[B-](F)(F)[N+]4=C(c6ccc[nH]6)C=CC4=C5)cc3C2=O)CC1 [NAN-190-2-NB590]	1.18	1.17	–
O=C(CCOCCOCCOCCOCCNC(=O)CCc1ccc2n1[B-](F)(F)[N+]1=C(c3ccc[nH]3)C=CC1=C2)NCCCN1CCN(C2=Nc3ccccc3Oc3ccc(Cl)cc32)CC1 [Loxapine-a-2-NB590]	1.11	1.18	–
CN(CCC=C1c2ccccc2CCc2ccccc21)C(=O)CCOCCOCCOCCOCCNC(=O)CCc1ccc2n1[B-](F)(F)[N+]1=C(c3ccc[nH]3)C=CC1=C2 [Amitriptyline-e-2-NB590]	–	–	NanoBRET Fold Response (tracer at 1μM): 1.25
CCCn1c(=O)c2[nH]c(-c3ccc(OCC(=O)NCCNC(=O)CCOCCNC(=O)c4ccc(CNC(=O)CCc5ccc6n5[B-](F)(F)[N+]5=C(c7ccc[nH]7)C=CC5=C6)cc4)cc3)nc2n(CCC)c1=O [XAC-3-NB590]	0.78	1.10	–
CN(C)CCC=C1c2ccccc2CCc2ccc(C(=O)NCCNC(=O)CCOCCOCCOCCOCCNC(=O)CCc3ccc4n3[B-](F)(F)[N+]3=C(c5ccc[nH]5)C=CC3=C4)cc21 [Amitriptyline-a-2-NB590]	–	–	NanoBRET Fold Response (tracer at 1μM): 1.45
CCOC(=O)c1cc(C#N)c(N2CCC(C(=O)NS(=O)(=O)Cc3ccccc3/C=C/C(=O)NCCNC(=O)CCc3ccc4n3[B-](F)(F)[N+]3=C(c5ccc[nH]5)C=CC3=C4)CC2)nc1C [AZD1283-1-NB590]	–	–	NanoBRET Fold Response (CHRM4, 0.1μM): 0.97; NanoBRET Fold Response (CHRM4, 1μM): 1.06
